{"source": "patent US20150351380A1", "about": "“TISSUE-PRESERVING LIQUID AND TISSUE-PRESERVING METHOD” (OSAKA UNIVERSITY, priority 2012, published 2015)", "tested_on": "luciferase transgenic rat-derived oral mucosal cell sheet", "test": "Residual ATP level in luciferase transgenic rat-derived oral mucosal cell sheet after preservation and post-preservation culture", "format": "cell-based", "conditions": "tBHQ in HBSS (1 μM, 10 μM, 100 μM)", "experimental": "An oral tissue of a luciferase transgenic rat (Hakamata Y, Murakami T, Kobayashi E., Transplantation 2006; 81(8): 1179-1184) was provided by Dr. Eiji Kobayashi in the Division of Development of Advanced Treatment, Jichi Medical University. The oral tissue was washed twice with DMEM (Gibco) supplemented with 1% antibiotics and antimycotics (AbAm, Gibco). The washed tissue was immersed in a solution of dispase I (1,000 PU/ml) in DMEM supplemented with 1% AbAm at 4° C. for 4 hours. After the dispase treatment, the tissue was transferred into a 0.02% EDTA solution (nacalai tesque), immersed therein at room temperature for 2 minutes, and washed twice with PBS. […]\nThe ATP level in a cell sheet correlates with the viability of the cell sheet. The ATP levels in a cell sheet before preservation, after preservation and after post-preservation culture were measured as an indicator of the viability of the cell sheet. […] After this, the 96-well plate was set in a luminescence microplate reader Centro LB960 (Berthold Technologies GmbH & Co. KG), and according to the device settings of the microplate reader, addition of luciferin (final concentration; 0.19 mg/ml) and measurement of the ATP level were conducted. The measurement temperature was 4° C., the single reading time was 2 seconds, and the total reading time was 12 minutes. […]"}
{"smiles": "CC(C)(C)c1cc(O)ccc1O", "note": "[tBHQ, tert-butylhydroquinone]", "values": [{"measurement": "residual ATP level after 7 days of preservation compared with HBSS without additive", "value": "higher"}]}
